Reference: patent US20250213701A1, “MEDICAMENT FOR TREATING HUMAN TUMOR BASED ON ERF3A-TARGETING PROTEOLYSIS MECHANISM” (SUZHOU DEGEN BIO-MEDICAL CO., LTD., priority 2022, published 2025)

Tests used:
ARV7 = assay: Western blot assay in 22Rv1 cells: ARV7; assay type: cell-based, human; details: different concentrations at 24 h, and 3 nM at different time points (FIGS. 7 and 8)
Text: Example 84: Western Blot Assay of Compound C59 in 22Rv1, PC-3, and HepG2 Cells
(1) Materials: 22Rv1, PC-3, and HepG2 cell, anti-SRD5A1 antibody (ab167606), anti-SRD5A2 antibody (ab124877), anti-SRD5A3 antibody (PA5-107029), anti-androgen receptor (AR) antibody (CST, No. 5153), anti-GSPT1 antibody (Abcam, ab234433), anti-GADPH antibody (CST, No. 5174), anti-c-Myc antibody (CST, No. 8583), anti-α-tublin antibody (CST, No. 2125), anti-rabbit IgG, HRP-linked antibody (CST, No. 7074), electrophoresis device and membrane transfer device (LIUYI, BEIJING; DYCZ-24DN)
Cell seeding: 22Rv1 (Cell Bank of the Chinese Academy of Sciences, TCHu100), PC-3 (Cell Bank of the Chinese Academy of Sciences, SCSP-532) and HepG2 cells (Cell Bank of the Chinese Academy of Sciences, TCHu72) were subcultured and trypsinized to prepare 6×10^5 cells/mL suspensions, seeded on 6-well plates (3 mL/well), and cultured overnight in a cell incubator at 5% CO2 and 37° C. […]
Protein quantification: The protein was quantified using a BCA protein quantification kit. […]
Western immunoblot assay (or Western blot, WB): SDS-PAGE gel at a proper concentration was prepared according to the molecular weight of the target protein: for example, the concentration of the separation gel was 8% and the concentration of the stacking gel was 5%. The loading volume was adjusted according to the protein quantification results. […]

SNU-1 cells = assay: Anti-proliferative toxicity of C63 in tumor cell lines (CCK8): SNU-1; assay type: cell-based; details: Homo sapiens, SNU1, 72 h, 3 days, read-out: Inhibition rate
Method: (§1) Example 83: Detection of Anti-Proliferative Toxicity of C63 in Some Tumor Cell Lines
SNU-1 cells (purchased from the Cell Bank of the Chinese Academy of Sciences, Cat. No. TCHu230) were subcultured in a culture medium (RPMI-1640 medium+1% penicillin-streptomycin dual-antibiotic solution+10% fetal bovine serum) in an incubator at 5% carbon dioxide and 37° C.
SNU-1 cells were seeded at 5000 cells/well (90 μL) on a 96-well plate and cultured for 24 h.
(§2) 10 mM compound stock solutions were prepared in DMSO.
(§3) The compound stock solution was diluted with DMSO to give DMSO solutions 1-9 at concentrations of 0 μM, 2500 μM, 500 μM, 100 μM, 20 μM, 4 μM, 0.8 μM, 0.16 μM, and 0.032 μM.
(§4) 2 μL of each of solutions 1-9 was added to 98 μL of the medium to give mixed solutions 11-19 of the compound and the medium.
(§5) 10 μL of each of solutions 11-19 was added to the above cell seed solution to give a total volume of 100 μL (90 μL+10 μL).
(§6) The concentrations of the compound in the wells were 0 μM, 5.0 μM, 1.0 μM, 0.2 μM, 0.04 μM, 0.008 μM, 0.0016 μM, 0.00032 μM, and 0.000064 μM. All concentrations were in triplicate.
(§7) After the above-treated cells were cultured for 3 days, 10 μL of the CCK8 solution (DOJINDO, Cat. No. PF725) was added to each well. The plate was incubated in an incubator at 37° C. for 1-4 h and then detected on a microplate reader for the reading at 450 nm.

HuH-7 cells = assay: Anti-proliferative toxicity of C63 in tumor cell lines (CCK8): HuH-7; assay type: cell-based; details: Homo sapiens, 72 h, 3 days, read-out: Inhibition rate
Method: as §1
HuH-7 cells (purchased from the Cell Bank of the Chinese Academy of Sciences, Cat. No. SCSP-526) were subcultured in a culture medium (DMEM medium+[…] penicillin-streptomycin dual-antibiotic solution+10% fetal bovine serum) in an incubator at […] and 37° C.
HuH-7 cells were seeded at 5000 cells/well (90 μL) on a 96-well plate and cultured for 24 h.
as §2, §3, §4, §5, §6, §7

C-33 A cells = assay: Anti-proliferative toxicity of C63 in tumor cell lines (CCK8): C-33 A; assay type: cell-based; details: Homo sapiens, 72 h, 3 days, read-out: Inhibition rate
Method: as §1
C-33 A cells (purchased from the Cell Bank of the Chinese Academy of Sciences, Cat. No. TCHu176) were subcultured in a culture medium (MEM medium+1% penicillin-streptomycin dual-antibiotic solution+10% fetal bovine serum) in an incubator at 5% carbon dioxide and 37° C.
C-33 A cells were seeded at 5000 cells/well (90 μL) on a 96-well plate and cultured for 24 h.
as §2, §3, §4, §5, §6, §7

SMILES: C[C@]12C=CC(=O)N[C@@H]1CC[C@@H]1[C@@H]2CC[C@]2(C)[C@@H](C(=O)Nc3cccc(N[C@@H]4CCC[C@@H](Nc5cccc6c5C(=O)N(C5CCC(=O)NC5=O)C6=O)C4)c3)CC[C@@H]12 (stereo partly drawn) [C59, N-(3-(N—(N-(4-(2-(3-(2,6-dioxopiperidine))-isoindole-1,3-dione))-1R,3R-cyclohexanediamine))phenyl)-3-oxo-4-aza-5α-androst-1-ene-17β-carboxamide]
- downregulation of ARV7 protein (Western blot) (ARV7): downregulation

SMILES: C[C@]12C=CC(=O)N[C@@H]1CC[C@@H]1[C@@H]2CC[C@]2(C)[C@@H](C(=O)Nc3cccc(N[C@@H]4CCC[C@@H](Nc5cccc6c5C(=O)N([C@H]5CCC(=O)NC5=O)C6=O)C4)c3)CC[C@@H]12 [C63, N-(3-(N—(N-(4-(2-(3S-(2,6-dioxopiperidine))-isoindole-1,3-dione))-1R,3R-cyclohexanediamine))phenyl)-3-oxo-4-aza-5α-androst-1-ene-17β-carboxamide]
- inhibition at 64 pM (SNU-1 cells; 0.000064 μM): 10.2%
- inhibition at 0.00032 µM (SNU-1 cells; 0.000320 μM): 28.9%
- inhibition at 0.0016 µM (SNU-1 cells; 0.001600 μM): 65.1%
- inhibition at 0.008 µM (SNU-1 cells; 0.008000 μM): 75.2%
- inhibition at 0.04 µM (SNU-1 cells; 0.040000 μM): 82.7%
- inhibition at 0.2 µM (SNU-1 cells; 0.200000 μM): 82%
- inhibition at 1 µM (SNU-1 cells; 1.000000 μM): 80.9%
- inhibition at 5 µM (SNU-1 cells; 5.000000 μM): 79.9%
- inhibition at 64 pM (HuH-7 cells; 0.000064 μM): 13.1%
- inhibition at 0.00032 µM (HuH-7 cells; 0.000320 μM): 59.9%
- inhibition at 0.0016 µM (HuH-7 cells; 0.001600 μM): 77.1%
- inhibition at 0.008 µM (HuH-7 cells; 0.008000 μM): 79.3%
- inhibition at 0.04 µM (HuH-7 cells; 0.040000 μM): 78.3%
- inhibition at 0.2 µM (HuH-7 cells; 0.200000 μM): 78.3%
- inhibition at 1 µM (HuH-7 cells; 1.000000 μM): 75.1%
- inhibition at 5 µM (HuH-7 cells; 5.000000 μM): 73.1%
- inhibition at 64 pM (C-33 A cells; 0.000064 μM): 21.5%
- inhibition at 0.00032 µM (C-33 A cells; 0.000320 μM): 15.9%
- inhibition at 0.0016 µM (C-33 A cells; 0.001600 μM): 25.4%
- inhibition at 0.008 µM (C-33 A cells; 0.008000 μM): 35.5%
- inhibition at 0.04 µM (C-33 A cells; 0.040000 μM): 48.3%
- inhibition at 0.2 µM (C-33 A cells; 0.200000 μM): 56.7%
- inhibition at 1 µM (C-33 A cells; 1.000000 μM): 63.9%
- inhibition at 5 µM (C-33 A cells; 5.000000 μM): 72.3%
